From patent US20230357307A1, “CLEAVABLE CYCLIC LOOP NUCLEOTIDES FOR NANOPORE SEQUENCING” (ILLUMINA, INC., priority 2022, published 2023)

Tested on: polymerase
Assay: polymerase incorporation of allyl dTTP (FIG. 7 gel)
Type: biochemical
Settings: homopolymeric A template
Description: A polymerase incorporated “allyl dTTP” and “ext allyl dTTP” to a template and primer combination, as indicated by the arrow in FIG. 7, for up to 10 successive incorporations. The reaction conditions as well as the definitions of “allyl dTTP” and “ext allyl dTTP” are given in the right panel of FIG. 7. Moreover, “A” and “B” are referring to the optically pure diastereomers arising from the C5′ allyl carbon center.
Lanes 1 (starting from the left), 3, 5, 7, 9 and 11 were loaded with reactions run for an hour; and Lanes 2, 4, 6, 8, 10 and 12 were loaded with reactions run for 22 hours. Lanes 1 and 2 show: controls with natural dTTP without any arresting constructs (Note, bands above +10 are seen due to the use of a homopolymeric A template, a common observation). Lanes 3 and 4 show: one isomer of Allyl dTTP (“Allyl A dTTP”) is used, the isomer arise from the C-stereogenic center (marked with “+” in the structure shown on the right panel of FIG. 7). Up to +7 incorporation observed after 1 h. […] Lanes 5 and 6 show: one isomer of ext allyl dTTP (“Ext Allyl A dTTP”) is used. Up to +7 incorporation observed after 22h. Slower incorporation possibly due to increased sterics. Lanes 7 and 8 show: the other isomer of Allyl dTTP (“Allyl B dTTP”) is used. Up to +10 incorporation observed after 22h. Lanes 9 and 10 show: the other isomer of ext allyl dTTP (“Ext Allyl B dTTP”) is used. […]

SMILES: Cc1cn([C@H]2C[C@H](O)[C@@H](COP(=O)(O)OP(=O)(O)OP(=O)(O)O)O2)c(=O)[nH]c1=O [dTTP]
- incorporation observed (primer +n) (reactions run for 22 hours): above +10
- incorporation observed (primer +n) (reactions run for an hour): above +10
